US4380512A, “2β-Chloromethyl-2α-methylpenam-3α-carboxylic acid sulfone and salts and esters thereof” (Bristol-Myers Company, priority 1981, dated 1983)
Where two headings read alike, the source gives them in different places.

Key:
Storage stability = assay type: physicochemical; settings: 23° C., seven days
Hygroscopicity = assay type: physicochemical; settings: solid
B. thetaiotaomicron = assay: Anti-Bacteroides activity, MIC by agar dilution (Table 2); assay type: cell-based; settings: A22279, beta-lactamase +
Description: *Minimum inhibitory concentration (MIC) determined by the agar dilution
method using 50X dilutions of 24 hour cultures as inocula dispensed by th
Steer's inoculator. Assay medium composed of Brucella Agar plus 5% laked
sheep blood and 10 mcg/ml vitamin K.

Bacteroides species = assay: as above; assay type: cell-based
[1] = Blood levels after oral administration to mice (Table 4); assay type: in vivo; settings: 100 mg/kg oral, 15 min, assay S. aureus A-9606
in vivo [2] = settings: mouse, po, 38 mg/kg
Source text: Compounds were solubilized in propylene glycol, except for the Hetacillin

C. freundii = assay: Antibacterial activity of ceforanide alone and with BL-P2013, MIC (Table 11); assay type: cell-based; settings: Citrobacter freundii; 1 strain; read-out: MIC
Source text: (§1) ^a Geometric mean value where applicable.

Citrobacter sp. = assay: as above; assay type: cell-based; settings: 1 strain, read-out: MIC
Source text: as §1

E. aerogenes = assay: as above; assay type: cell-based; settings: Klebsiella aerogenes, read-out: MIC
Source text: as §1

M. morganii = assay: as above; assay type: cell-based; settings: 8 strains (second line), geometric mean
Source text: as §1

P. aeruginosa = assay: as above; assay type: cell-based; settings: Pseudomonas aeruginosa; 16 strains, geometric mean; read-out: MIC
Source text: as §1

P. stuartii = assay: as above; assay type: cell-based; settings: Providencia stuartii
Source text: as §1

S. marcescens = assay: as above; assay type: cell-based; settings: geometric mean
Source text: as §1

E. coli A9675 = assay: Therapeutic efficacy of BL-P2043, BL-P2044 and components, oral, infected mice (Table 13); assay type: in vivo; settings: Escherichia coli, A9675, po, read-out: PD50/Treatment
[3] = test system: β-lactamase-producing bacteria; assay: Protection of ceforanide and amoxicillin from destruction; settings: in vitro and in vivo, in combination
[4] = mouse, in vivo, po, 38 mg/kg
in vivo [5] = settings: mouse, po, 38 mg/kg; remark: listed apart in the source

## CC1(CCl)C(C(=O)O)N2C(=O)CC2S1(=O)=O (stereo not drawn) [BL-P2013 Free Acid, 2β-chloromethyl-2α-methylpenam-3α-carboxylic acid sulfone]
Storage stability
  stability on storage: unstable when stored at 23 °C for seven days
Hygroscopicity
  hygroscopicity: hydroscopic

## CC1(CCl)C(C(=O)O)N2C(=O)CC2S1(=O)=O (stereo not drawn) [BL-P2013, Potassium 2β-Chloromethyl-2α-methylpenam-3α-carboxylate Sulfone]
B. thetaiotaomicron
  MIC: 63 µg/mL
Bacteroides species; A20927-1, beta-lactamase -
  MIC: 63 µg/mL
Bacteroides species; A20933, beta-lactamase +
  MIC: 63 µg/mL
[1]
  Blood Level: 4600 ng/mL
In vivo [2]
  AUC: 4400 ng·h/mL
  concentration at 0.5 h: 2300 ng/mL
  concentration at 2 h: 1600 ng/mL
C. freundii
  MIC: > 125 µg/mL
Citrobacter sp.
  MIC: 16 µg/mL
E. aerogenes; 1 strain
  MIC: 16 µg/mL
E. aerogenes; 4 strains, geometric mean
  MIC: > 125 µg/mL
E. aerogenes; 5 strains, geometric mean
  MIC: > 125 µg/mL
M. morganii
  MIC: > 125 µg/mL
P. aeruginosa
  MIC: 125 µg/mL
P. stuartii; 1 strain
  MIC: 125 µg/mL
P. stuartii; 4 strains, geometric mean
  MIC: 125 µg/mL
S. marcescens; 6 strains
  MIC: 125 µg/mL
S. marcescens; Serratia marcescens, 10 strains, read-out: MIC
  MIC: 125 µg/mL
E. coli A9675
  ED50: > 50 mg/kg
[3]
  protection of ceforanide and amoxicillin from destruction by β-lactamase-producing bacteria: protected ceforanide and amoxicillin from destruction by β-lactamase-producing bacteria in vitro and in vivo
[4]; 0.5 h
  Blood Level: 1800 ng/mL
[4]; 1 h
  Blood Level: 1400 ng/mL
In vivo [5]; AUC
  AUC: 4400 ng·h/mL
In vivo [5]; Blood Level
  concentration at 0.5 h: 2300 ng/mL
